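96-well plates; 48 h exposure; 5 concentrations. Endpoints by linear interpolation between flanking doses. Not reached: highest tested concentration assigned. Here, GI50 denotes the concentration required for 50% inhibition of growth. TGI is the concentration that stops growth completely.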
Legend:
Test in all cases: inhibition of tumour cell growth, NCI panel, 48 h
SNB-75 CNS = test system: SNB-75 CNS
HS 578T breast = test system: HS 578T breast
M14 melanoma = test system: M14 melanoma
OVCAR-3 ovarian = test system: OVCAR-3 ovarian
BT-549 breast = test system: BT-549 breast
SK-MEL-28 melanoma = test system: SK-MEL-28 melanoma
MDA-MB-435 = test system: MDA-MB-435
IGROV1 ovarian = test system: IGROV1 ovarian
OVCAR-8 ovarian = test system: OVCAR-8 ovarian
U251 CNS = test system: U251 CNS
RXF 393 renal = test system: RXF 393 renal
SR leukemia = test system: SR leukemia
KM12 colon = test system: KM12 colon
NCI-H226 lung = test system: NCI-H226 lung
A549 NSCLC = test system: A549 NSCLC
A498 renal = test system: A498 renal
DU-145 prostate = test system: DU-145 prostate
SF-539 CNS = test system: SF-539 CNS
MDA-MB-231 breast = test system: MDA-MB-231 breast
CAKI-1 renal = test system: CAKI-1 renal
SW-620 colon = test system: SW-620 colon
HOP-92 NSCLC = test system: HOP-92 NSCLC
HCC-2998 colon = test system: HCC-2998 colon
EKVX NSCLC = test system: EKVX NSCLC
786-0 renal = test system: 786-0 renal
T-47D breast = test system: T-47D breast
MOLT-4 leukemia = test system: MOLT-4 leukemia
SK-OV-3 ovarian = test system: SK-OV-3 ovarian
SNB-19 CNS = test system: SNB-19 CNS
K-562 leukemia = test system: K-562 leukemia
MALME-3M melanoma = test system: MALME-3M melanoma
HCT-116 colon = test system: HCT-116 colon
LOX IMVI melanoma = test system: LOX IMVI melanoma
HL-60(TB) leukemia = test system: HL-60(TB) leukemia
OVCAR-4 ovarian = test system: OVCAR-4 ovarian
OVCAR-5 ovarian = test system: OVCAR-5 ovarian
HOP-62 NSCLC = test system: HOP-62 NSCLC
SK-MEL-2 melanoma = test system: SK-MEL-2 melanoma
UO-31 renal = test system: UO-31 renal
UACC-257 melanoma = test system: UACC-257 melanoma
ACHN renal = test system: ACHN renal
TK-10 renal = test system: TK-10 renal
HCT-15 colon = test system: HCT-15 colon
UACC-62 melanoma = test system: UACC-62 melanoma
PC-3 prostate = test system: PC-3 prostate
COLO 205 colon = test system: COLO 205 colon
SF-268 CNS = test system: SF-268 CNS
SF-295 CNS = test system: SF-295 CNS
NCI/ADR-RES ovarian = test system: NCI/ADR-RES ovarian
SN12C renal = test system: SN12C renal
HT29 colon = test system: HT29 colon
SK-MEL-5 melanoma = test system: SK-MEL-5 melanoma
RPMI-8226 leukemia = test system: RPMI-8226 leukemia
NCI-H460 lung = test system: NCI-H460 lung
MCF7 breast = test system: MCF7 breast
NCI-H23 lung = test system: NCI-H23 lung
NCI-H522 lung = test system: NCI-H522 lung
CCRF-CEM leukemia = test system: CCRF-CEM leukemia
MDA-N = test system: MDA-N

## O=C(Nc1n[nH]c2cc(-c3cc(F)ccc3F)ccc12)C1CC1
SNB-75 CNS
  GI50: > 15.8 µM
  TGI: > 25 µM
HS 578T breast
  GI50: 13.1 µM
  TGI: > 25 µM
M14 melanoma
  GI50: 13.8 µM
  TGI: > 25 µM
OVCAR-3 ovarian
  GI50: 9.3 µM
  TGI: 24.2 µM
BT-549 breast
  GI50: > 21.7 µM
  TGI: > 25 µM
SK-MEL-28 melanoma
  GI50: > 14.5 µM
  TGI: > 25 µM
MDA-MB-435
  GI50: 4.56 µM
  TGI: 21.5 µM
IGROV1 ovarian
  GI50: > 25 µM
  TGI: > 25 µM
OVCAR-8 ovarian
  GI50: > 22 µM
  TGI: > 25 µM
U251 CNS
  GI50: 15.3 µM
  TGI: > 25 µM
RXF 393 renal
  GI50: 17.3 µM
  TGI: > 25 µM
SR leukemia
  GI50: 6.38 µM
  TGI: > 25 µM
KM12 colon
  GI50: 8.08 µM
  TGI: > 25 µM
NCI-H226 lung
  GI50: 18.4 µM
  TGI: > 25 µM
A549 NSCLC
  GI50: 11.4 µM
  TGI: > 25 µM
A498 renal
  GI50: > 25 µM
  TGI: > 25 µM
DU-145 prostate
  GI50: 17.7 µM
  TGI: > 25 µM
SF-539 CNS
  GI50: 13.5 µM
  TGI: > 25 µM
MDA-MB-231 breast
  GI50: 19.5 µM
  TGI: > 25 µM
CAKI-1 renal
  GI50: > 20.9 µM
  TGI: > 25 µM
SW-620 colon
  GI50: 10.7 µM
  TGI: > 25 µM
HOP-92 NSCLC
  GI50: > 25 µM
  TGI: > 25 µM
HCC-2998 colon
  GI50: 14.4 µM
  TGI: > 25 µM
EKVX NSCLC
  GI50: > 22.3 µM
  TGI: > 25 µM
786-0 renal
  GI50: > 25 µM
  TGI: > 25 µM
T-47D breast
  GI50: 11.8 µM
  TGI: > 25 µM
MOLT-4 leukemia
  GI50: 14.3 µM
  TGI: > 25 µM
SK-OV-3 ovarian
  GI50: 11.1 µM
  TGI: > 25 µM
SNB-19 CNS
  GI50: > 25 µM
  TGI: > 25 µM
K-562 leukemia
  GI50: 7.47 µM
  TGI: > 25 µM
MALME-3M melanoma
  GI50: 14.2 µM
  TGI: > 25 µM
HCT-116 colon
  GI50: 9.78 µM
  TGI: > 25 µM
LOX IMVI melanoma
  GI50: 14.4 µM
  TGI: > 25 µM
HL-60(TB) leukemia
  GI50: 7.81 µM
  TGI: > 25 µM
OVCAR-4 ovarian
  GI50: 13.2 µM
  TGI: > 25 µM
OVCAR-5 ovarian
  GI50: > 22.3 µM
  TGI: > 25 µM
HOP-62 NSCLC
  GI50: 15.2 µM
  TGI: > 25 µM
SK-MEL-2 melanoma
  GI50: 12.2 µM
  TGI: > 25 µM
UO-31 renal
  GI50: 16.1 µM
  TGI: > 25 µM
UACC-257 melanoma
  GI50: > 25 µM
  TGI: > 25 µM
ACHN renal
  GI50: > 25 µM
  TGI: > 25 µM
TK-10 renal
  GI50: > 25 µM
  TGI: > 25 µM
HCT-15 colon
  GI50: 8.39 µM
  TGI: > 25 µM
UACC-62 melanoma
  GI50: 19.5 µM
  TGI: > 25 µM
PC-3 prostate
  GI50: 17.6 µM
  TGI: > 25 µM
COLO 205 colon
  GI50: 13.1 µM
  TGI: > 25 µM
SF-268 CNS
  GI50: 19.5 µM
  TGI: > 25 µM
SF-295 CNS
  GI50: 16.9 µM
  TGI: > 25 µM
NCI/ADR-RES ovarian
  GI50: 9.31 µM
  TGI: > 25 µM
SN12C renal
  GI50: 15.7 µM
  TGI: > 25 µM
HT29 colon
  GI50: 9.42 µM
  TGI: > 25 µM
SK-MEL-5 melanoma
  GI50: 8.09 µM
  TGI: > 25 µM
RPMI-8226 leukemia
  GI50: 13.1 µM
  TGI: > 25 µM
NCI-H460 lung
  GI50: 8.81 µM
  TGI: > 25 µM
MCF7 breast
  GI50: 7.43 µM
  TGI: > 19.8 µM
NCI-H23 lung
  GI50: 14.2 µM
  TGI: > 25 µM
NCI-H522 lung
  GI50: 9.15 µM
  TGI: > 25 µM
CCRF-CEM leukemia
  GI50: 10.5 µM
  TGI: > 25 µM

## CSC(SC)=C(C(=O)c1ccc(Cl)cc1)n1c(=O)sc2cc(Br)ccc21
HS 578T breast
  TGI: > 100 µM
M14 melanoma
  TGI: > 100 µM
OVCAR-3 ovarian
  TGI: > 100 µM
SK-MEL-28 melanoma
  TGI: > 100 µM
MDA-MB-435
  TGI: > 100 µM
IGROV1 ovarian
  TGI: > 100 µM
OVCAR-8 ovarian
  TGI: > 100 µM
U251 CNS
  TGI: > 100 µM
RXF 393 renal
  TGI: > 100 µM
KM12 colon
  TGI: > 100 µM
NCI-H226 lung
  TGI: > 100 µM
A549 NSCLC
  TGI: > 100 µM
A498 renal
  TGI: > 100 µM
DU-145 prostate
  TGI: > 100 µM
SF-539 CNS
  TGI: > 100 µM
MDA-MB-231 breast
  TGI: > 100 µM
CAKI-1 renal
  TGI: > 100 µM
SW-620 colon
  TGI: > 100 µM
HOP-92 NSCLC
  TGI: > 100 µM
HCC-2998 colon
  TGI: > 100 µM
EKVX NSCLC
  TGI: > 100 µM
786-0 renal
  TGI: > 100 µM
T-47D breast
  TGI: > 100 µM
MOLT-4 leukemia
  TGI: > 100 µM
SK-OV-3 ovarian
  TGI: > 100 µM
SNB-19 CNS
  TGI: > 100 µM
K-562 leukemia
  TGI: > 100 µM
MALME-3M melanoma
  TGI: > 100 µM
HCT-116 colon
  TGI: > 100 µM
LOX IMVI melanoma
  TGI: > 100 µM
HL-60(TB) leukemia
  TGI: > 100 µM
OVCAR-4 ovarian
  TGI: > 100 µM
OVCAR-5 ovarian
  TGI: > 100 µM
HOP-62 NSCLC
  TGI: > 100 µM
SK-MEL-2 melanoma
  TGI: > 100 µM
UO-31 renal
  TGI: > 100 µM
UACC-257 melanoma
  TGI: > 100 µM
ACHN renal
  TGI: > 100 µM
TK-10 renal
  TGI: > 100 µM
HCT-15 colon
  TGI: > 100 µM
UACC-62 melanoma
  TGI: > 100 µM
PC-3 prostate
  TGI: > 100 µM
COLO 205 colon
  TGI: > 100 µM
SF-268 CNS
  TGI: > 100 µM
SF-295 CNS
  TGI: > 100 µM
NCI/ADR-RES ovarian
  TGI: > 100 µM
SN12C renal
  TGI: > 100 µM
HT29 colon
  TGI: > 100 µM
SK-MEL-5 melanoma
  TGI: > 100 µM
MDA-N
  TGI: > 100 µM
RPMI-8226 leukemia
  TGI: > 100 µM
NCI-H460 lung
  TGI: > 100 µM
MCF7 breast
  TGI: > 100 µM
NCI-H23 lung
  TGI: > 100 µM
NCI-H522 lung
  TGI: > 100 µM
CCRF-CEM leukemia
  TGI: > 100 µM
